This passage reports IC50 and melting point results from patent publication US6617340B1, “N-(substituted glycyl)-pyrrolidines, pharmaceutical compositions containing them and their use in inhibiting dipeptidyl peptidase-IV” (Novartis AG, priority 1999, dated 2003).

The structures appear in SMILES notation.

Data set [1] addresses T1, DPP-IV activity in human plasma (Homo sapiens, UniProt P27487).
T1 construct: from tissue; host or cells: human plasma
The data set is described as follows: human plasma DPP-IV assay. Particulars: substrate H-Glycine-Proline-AMC. The data set is classed as biochemical. On the procedure:
(§1) Briefly, five μl of plasma are added to 96-well flat-bottom mictotiter plates (Falcon), followed by the addition of 5 μl of 80 mM MgCl2 in incubation buffer (25 mM HEPES, 140 mM NaCl, 1% RIA-grade BSA, pH 7.8). After a 5 min. incubation at room temperature, the reaction is initiated by the addition of 10 μl of incubation buffer containing 0.1 mM substrate (H-Glycine-Proline-AMC; AMC is 7-amino-4-methylcoumarin). The plates are covered with aluminum foil (or kept in the dark) and incubated at room temperature for 20 min. […] A fluorescence-concentration curve of free AMC is generated using 0-50 μM solutions of AMC in assay buffer. The curve generated is linear and is used for interpolation of substrate consumption (catalytic activity in nmoles substrate cleaved/min). As with the previous assay, the potency of the test compounds as DPP-IV inhibitors, expressed as IC50, is calculated from 8-point, dose-response curves using a 4 parameter logistic function.

Data set [2] deals with T2, DPP-IV activity in rat plasma (Rattus norvegicus, UniProt P14740).
T2 construct: from tissue; host or cells: rat plasma
T2 sequence (P14740 37-767 limits assumed): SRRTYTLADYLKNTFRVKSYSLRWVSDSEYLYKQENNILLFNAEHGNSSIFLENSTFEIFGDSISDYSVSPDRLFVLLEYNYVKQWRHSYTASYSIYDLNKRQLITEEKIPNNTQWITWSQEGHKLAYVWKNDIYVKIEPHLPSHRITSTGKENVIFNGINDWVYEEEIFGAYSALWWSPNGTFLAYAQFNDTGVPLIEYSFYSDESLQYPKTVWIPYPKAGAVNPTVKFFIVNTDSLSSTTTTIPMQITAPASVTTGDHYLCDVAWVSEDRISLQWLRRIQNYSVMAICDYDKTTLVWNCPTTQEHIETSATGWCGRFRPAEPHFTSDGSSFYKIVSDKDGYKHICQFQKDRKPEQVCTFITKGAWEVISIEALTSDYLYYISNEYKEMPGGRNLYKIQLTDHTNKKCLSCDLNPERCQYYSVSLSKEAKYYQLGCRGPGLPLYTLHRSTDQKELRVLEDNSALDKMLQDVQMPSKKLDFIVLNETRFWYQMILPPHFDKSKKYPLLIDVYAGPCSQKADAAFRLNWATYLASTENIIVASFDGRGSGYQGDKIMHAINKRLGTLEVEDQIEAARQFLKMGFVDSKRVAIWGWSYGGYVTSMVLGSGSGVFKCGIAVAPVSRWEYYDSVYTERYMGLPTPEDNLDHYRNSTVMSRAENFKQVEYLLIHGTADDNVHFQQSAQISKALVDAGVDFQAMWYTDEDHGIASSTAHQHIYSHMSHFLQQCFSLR
The data set is described as follows: rat plasma DPP-IV assay. The data set is classed as biochemical. The settings on record: substrate H-Glycine-Proline-AMC. On the procedure: as §1

For data set [3], the target named is T3, DPP-IV activity from human colonic carcinoma cell extracts (Caco-2) (Homo sapiens, UniProt P27487).
T3 construct: Cell extract is prepared from cells solubilized in 10 mM Tris-HCl, 0.15 M NaCl, 0.04 t.i.u. aprotinin, 0.5% nonidet-P40; host or cells: Caco-2 (differentiated), NP-40 solubilized extract
T3 sequence (P27487 whole entry): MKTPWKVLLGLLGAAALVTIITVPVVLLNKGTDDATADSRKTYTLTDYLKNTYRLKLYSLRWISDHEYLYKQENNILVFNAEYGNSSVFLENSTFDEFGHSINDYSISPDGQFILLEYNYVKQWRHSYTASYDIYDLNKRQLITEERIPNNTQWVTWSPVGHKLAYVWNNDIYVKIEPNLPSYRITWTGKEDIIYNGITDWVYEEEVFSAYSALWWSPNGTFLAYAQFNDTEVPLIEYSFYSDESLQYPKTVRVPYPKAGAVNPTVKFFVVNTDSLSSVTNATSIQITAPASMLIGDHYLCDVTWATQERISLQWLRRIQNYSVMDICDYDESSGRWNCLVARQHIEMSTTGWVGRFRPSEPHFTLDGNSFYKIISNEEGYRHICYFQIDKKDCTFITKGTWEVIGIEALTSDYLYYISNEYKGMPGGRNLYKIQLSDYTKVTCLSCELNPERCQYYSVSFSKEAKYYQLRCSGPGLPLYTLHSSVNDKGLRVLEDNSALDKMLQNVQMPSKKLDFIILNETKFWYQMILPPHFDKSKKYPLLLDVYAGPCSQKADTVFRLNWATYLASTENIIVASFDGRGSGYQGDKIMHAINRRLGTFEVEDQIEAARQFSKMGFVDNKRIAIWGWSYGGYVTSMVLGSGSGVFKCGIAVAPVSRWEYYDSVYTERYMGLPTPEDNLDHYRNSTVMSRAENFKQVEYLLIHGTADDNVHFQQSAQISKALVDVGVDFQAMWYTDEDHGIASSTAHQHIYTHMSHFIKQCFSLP
The data set is described as follows: Caco-2 DPP-IV Assay. It is filed as biochemical. Particulars: Caco-2 cell extract, substrate H-Alanine-Proline-pNA. Here is the method:
The human colonic carcinoma cell line Caco-2 was obtained from the American Type Culture Collection (ATCC HTB 37). Differentiation of the cells to induce DPP-IV expression was accomplished as described by Reisher, et al. in an article entitled “Increased expression of . . . intestinal cell line Caco-2” in Proc. Natl. Acad. Sci., Vol. 90, pgs. […] Cell extract is prepared from cells solubilized in 10 mM Tris-HCl, 0.15 M NaCl, 0.04 t.i.u. aprotinin, 0.5% nonidet-P40, pH 8.0, which is centrifuged at 35,000 g for 30 min. at 4° C. to remove cell debris. The assay is conducted by adding 20 μg solubilized Caco-2 protein, diluted to a final volume of 125 μl in assay buffer (25 mM Tris-HCl pH 7.4, 140 mM NaCl, 10 mM KCl, 1% bovine serum albumin) to microtiter plate wells. The reaction is initiated by adding 25 μl of 1 mM substrate (H-Alanine-Proline-pNA; pNA is p-nitroaniline). The reaction is run at room temperature for 10 minutes after which time a 19 μl volume of 25% glacial acetic acid is added to stop the reaction. […] A standard curve of free p-nitroaniline is generated using 0-500 μM solutions of free pNA in assay buffer. The curve generated is linear and is used for interpolation of substrate consumption (catalytic activity in nmoles substrate cleaved/min). […] The potency of the test compounds as DPP-IV inhibitors, expressed as IC50, is calculated from 8-point, dose-response curves using a 4-parameter logistic function.

T1 sequence (P27487 39-766 limits assumed): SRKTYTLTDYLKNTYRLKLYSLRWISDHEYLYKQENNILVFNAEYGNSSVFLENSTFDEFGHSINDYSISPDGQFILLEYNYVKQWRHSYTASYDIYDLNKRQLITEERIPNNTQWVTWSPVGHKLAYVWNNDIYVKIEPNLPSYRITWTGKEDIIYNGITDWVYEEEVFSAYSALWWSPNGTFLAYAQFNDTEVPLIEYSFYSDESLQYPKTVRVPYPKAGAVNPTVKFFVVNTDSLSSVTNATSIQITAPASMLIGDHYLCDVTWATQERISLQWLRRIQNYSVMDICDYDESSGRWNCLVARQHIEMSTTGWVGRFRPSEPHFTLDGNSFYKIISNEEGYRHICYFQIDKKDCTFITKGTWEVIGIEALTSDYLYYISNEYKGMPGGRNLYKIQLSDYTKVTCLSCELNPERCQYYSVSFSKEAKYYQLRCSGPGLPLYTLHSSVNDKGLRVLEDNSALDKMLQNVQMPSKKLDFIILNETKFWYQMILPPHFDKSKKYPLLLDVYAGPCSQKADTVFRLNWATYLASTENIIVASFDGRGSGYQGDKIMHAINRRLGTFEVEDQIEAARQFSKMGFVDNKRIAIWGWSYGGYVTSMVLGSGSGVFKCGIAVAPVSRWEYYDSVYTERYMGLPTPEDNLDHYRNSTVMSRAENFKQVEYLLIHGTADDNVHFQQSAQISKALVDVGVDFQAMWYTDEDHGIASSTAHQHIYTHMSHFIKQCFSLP

For the molecule `O=C(CNCCNc1ccc(Cl)cn1)N1CCCC1` [Ex. 1, 1-[2-[(5-chloropyridin-2-yl)amino]ethylamino]acetylpyrrolidine], the IC50 in data set [1] was determined as 15.9 µM; in data set [2], 9.3 µM; in data set [3], 5.5 µM.
Molecule `O=C(CNC1(CO)CCCC1)N1CCCC1` [Ex. 2C, 1-[(1-hydroxymethylcyclopent-1-yl)amino]acetylpyrrolidine] gave a melting point of 72 to 74 °C. This molecule registered an IC50 in data set [1] of 15.2 µM. The molecule further showed an IC50 in data set [2] of 7.8 µM. This molecule also showed an IC50 in data set [3] of 9.7 µM.
On the same counts, the results for `N#Cc1ccc(NCCNCC(=O)N2CCCC2)nc1` [Ex. 2A, 1-[2-[(5-cyanopyridin-2-yl)amino]ethylamino]acetylpyrrolidine] are 122 to 123 °C, 9.2 µM, 4.4 µM and 2.6 µM.
In the case of `O=C(CNCCNc1ccccn1)N1CCCC1` [Ex. 2D, 1-[2-[(pyridin-2-yl)amino]ethylamino]acetylpyrrolidine], the melting point was in the range of 98 to 100 °C. In addition, the IC50 in data set [1] stood at 9.4 µM. This molecule displayed an IC50 in data set [2] of 22.9 µM. Also, it took 6.4 µM to reach half-maximal inhibition in data set [3] (IC50).
For `O=C(CNCCNc1ncccn1)N1CCCC1` [Ex. 2B], the IC50 amounted to 45.8 µM in data set [1], 28.4 µM in data set [2] and 27.5 µM in data set [3].
